# Laboratory results taken from publication PMC6308302, “Identification of Pharmacokinetic Markers for Guanxin Danshen Drop Pills in Rats by Combination of Pharmacokinetics, Systems Pharmacology, and Pharmacodynamic Assays” (Frontiers in Pharmacology, 2018).
# “Also recorded” adds a separate entry of the source. Marks after values point to notes of the source that are not given here.
# Tests used:
# [1] = Aqueous solubility test (vortexing in water); type: physicochemical; conditions: water at 25 °C
# Description: Aqueous solubility (S) test of the 17 ingredients was performed by vortexing 10 mg of each ingredient in […] water in a test tube at ambient temperature and 1 atm. After vortexing for 5 min, if the solution is clear, the tested object will be considered as soluble in water. In silico assessment of the physicochemical properties governing permeation and intestinal absorption was carried out for the 17 ingredients studied. Theory aqueous solubility (S) was calculated with ALOGPS 2.1 online software via the Virtual Computational Chemistry Laboratory service (Chemoinformatics Group, Neuherberg, Germany) (VCCLAB^1). The octanol–water partition coefficient (cLogP), the total hydrogen bond count (donors and acceptors), and topological polar surface area (TPSA) were determined using the Molinspiration Property Calculator (Molinspiration Cheminformatics, Bratislava, Slovak Republic^2). Lipinski’s rule of 5 was used to predict the permeability of the compound ([Lipinski et al., 2001]).
# [2] = tested on: isoprenaline-induced MI in mice; assay: In vivo anti-MI study: isoprenaline-induced myocardial injury (ECG, H&E histology); conditions: for ECG (lead II) findings on the fifth day of the trial: 40 mg/kg p.o., isoprenaline 5 mg/kg on days 4 and 5
# [3] = Multiple component PK study in rat plasma after p.o. GDDP (HPLC-MS); conditions: for determination in rat plasma at the planned successive PK time points / detection in rat plasma: GDDP 0.8 g/kg p.o.; for determination in rat plasma at the planned successive PK time points: 5, 10, 15, 30, 45, 60, and 120 min, LOQ 1.0–1.4 ng/mL; for detection in rat plasma: at 5, 10, 15, 30, 45, or 60 min, LOD 0.5–0.7 ng/mL
# [4] = Stability tests in rat plasma (QC samples, HPLC-MS); conditions: n=5
# Description: Accuracy and precision were expressed by relative error (RE) and coefficient of variance (RSD), respectively.
# Caco-2 cell monolayers = conditions: ref Lu et al., 2008, Liu et al., 2009, Hu et al., 2014, Bowles et al., 2017, cited from earlier work; for Papp(apical→basolateral) / Papp(basolateral→apical): Caco-2 cell monolayers, from literature; for apparent permeability in Caco-2 cell monolayers: previous results
# [5] = 40 mg/kg p.o. for 7 days, isoprenaline-induced MI, 40 mg/kg
# [6] = Sprague-Dawley, rat, plasma, po, 0.4 g/kg
# [7] = Sprague-Dawley, rat, plasma, po, 0.4 g/kg, Cmax, rat plasma, GDDP 0.4 g/kg p.o. (Low dose group), n=3
# [8] = Sprague-Dawley, rat, plasma, po, 0.4 g/kg, t1/2 β, rat plasma, GDDP 0.4 g/kg p.o. (Low dose group), n=3
# [9] = Sprague-Dawley, rat, plasma, po, 0.8 g/kg
# [10] = Sprague-Dawley, rat, plasma, po, 0.8 g/kg, Cmax (high / low plasma drug concentrations), rats, GDDP 0.4 and 0.8 g/kg p.o., classification
# [11] = Sprague-Dawley, rat, plasma, po, 0.8 g/kg, Cmax, rat plasma, GDDP 0.8 g/kg p.o. (High dose group), n=3
# [12] = Sprague-Dawley, rat, plasma, po, 0.8 g/kg, t1/2 β (fast / slow elimination type), rats, GDDP 0.4 and 0.8 g/kg p.o., classification
# [13] = Sprague-Dawley, rat, plasma, po, 0.8 g/kg, t1/2 β, rat plasma, GDDP 0.8 g/kg p.o. (High dose group), n=3
# [14] = rat plasma, GDDP 0.4 g/kg p.o. (Low dose group), n=3
# [15] = rat plasma, GDDP 0.8 g/kg p.o. (High dose group), n=3
# [16] = 24h in auto-sampler vials, spiked 2 ng/mL
# [17] = 24h in auto-sampler vials, spiked 400 ng/mL
# [18] = 24h in auto-sampler vials, spiked 1600 ng/mL
# [19] = Placing plasma for 6h at 4°C, spiked 2 ng/mL
# [20] = Placing plasma for 6h at 4°C, spiked 400 ng/mL
# [21] = Placing plasma for 6h at 4°C, spiked 1600 ng/mL
# [22] = three freeze-thaw cycles, rat plasma, spiked 2 ng/mL
# [23] = three freeze-thaw cycles, rat plasma, spiked 400 ng/mL
# [24] = three freeze-thaw cycles, rat plasma, spiked 1600 ng/mL
# [25] = 40 mg/kg p.o. for 7 days, isoprenaline-induced MI
smiles,measurement,setting,value
"C[C@H]1COC2=C1C(=O)C(=O)c1c2ccc2c1CCCC2(C)C [CTS, cryptotanshinone]",solubility in water (in words),[1],insoluble
same,Histopathology of heart tissue (H&E),[2]; [5],remarkably severe histological damage with extensive myocardial lysis and architecture wrecking; also recorded: extremely severe histological damage with extensive myocardial lysis and architecture wrecking
same,ECG (lead II) findings on the fifth day of the trial,[2],T waves reversed or decreased
same,determination in rat plasma at the planned successive PK time points,[3],could be determined
same,detection in rat plasma,[3],could be detected
same,AUC(0-inf),[3]; [6],1.72 ± 1.24 ng·h/mL
same,AUC(0-t),[3]; [6],0.84 ± 0.03 ng·h/mL
same,MRT inf,[3]; [6],0.69 ± 0.66 h
same,MRT last,[3]; [6],0.23 ± 0.03 h
same,Tmax,[3]; [6],0.25 h
same,Cmax,[3]; [7],2.33 ± 0.49 ng/mL
same,half-life,[3]; [8],0.45 ± 0.45 h
same,AUC(0-inf),[3]; [9],3.24 ± 1.09 ng·h/mL
same,AUC(0-t),[3]; [9],2.76 ± 1.18 ng·h/mL
same,MRT inf,[3]; [9],0.84 ± 0.3 h
same,MRT last,[3]; [9],0.56 ± 0.22 h
same,Tmax,[3]; [9],0.25 h
same,Cmax,[3]; [10],< 10 ng/mL
same,Cmax,[3]; [11],4.09 ± 1.47 ng/mL
same,half-life,[3]; [12],< 2 h
same,half-life,[3]; [13],0.57 ± 0.26 h
same,Cltot,[3]; [14],3485.3 ± 2517.8 mL/min/kg
same,Cltot,[3]; [15],2924 ± 826.2 mL/min/kg
same,Stability: Measured,[4]; [16],1.79 ± 0.36 ng/mL
same,Stability: RE,[4]; [16],-10.32%
same,Stability: Measured,[4]; [17],478.43 ± 27.22 ng/mL
same,Stability: RE,[4]; [17],19.61%
same,Stability: Measured,[4]; [18],1852.38 ± 164.86 ng/mL
same,Stability: RE,[4]; [18],15.77%
same,Stability: Measured,[4]; [19],1.79 ± 0.26 ng/mL
same,Stability: RE,[4]; [19],-10.47%
same,Stability: Measured,[4]; [20],438.37 ± 50.69 ng/mL
same,Stability: RE,[4]; [20],9.59%
same,Stability: Measured,[4]; [21],1890.21 ± 223.22 ng/mL
same,Stability: RE,[4]; [21],18.14%
same,Stability: Measured,[4]; [22],1.62 ± 0.22 ng/mL
same,Stability: RE,[4]; [22],-19.00%
same,Stability: Measured,[4]; [23],457.79 ± 26.04 ng/mL
same,Stability: RE,[4]; [23],14.45%
same,Stability: Measured,[4]; [24],1871.43 ± 321.89 ng/mL
same,Stability: RE,[4]; [24],16.96%
same,Papp(apical→basolateral),Caco-2 cell monolayers,1.59^d ×10^-6 cm/s
same,Papp(basolateral→apical),Caco-2 cell monolayers,8.36^d ×10^-6 cm/s
same,apparent permeability in Caco-2 cell monolayers,Caco-2 cell monolayers,≥ 10^-6 cm/s
"Cc1coc2c1C(=O)C(=O)c1c-2ccc2c1CCCC2(C)C [TS IIA, tanshinone (TS) IIA]",solubility in water (in words),[1],insoluble
same,ST segment elevations on the seventh day of the trial,"[2]; 40 mg/kg p.o. for 7 days, compared with model group, P < 0.05",significantly decreased
same,Histopathology of heart tissue (H&E),[2]; [25],"edema, inflammatory infiltration, and loss of striations in heart tissue"
same,anti-MI effect (overall conclusion),[2]; [25],mild therapeutic effect
same,ECG (lead II) findings on the fifth day of the trial,[2],ST segment elevated
same,determination in rat plasma at the planned successive PK time points,[3],could be determined
same,detection in rat plasma,[3],could be detected
same,AUC(0-inf),[3]; [6],71.7 ± 47.4 ng·h/mL
same,AUC(0-t),[3]; [6],23.5 ± 6.4 ng·h/mL
same,MRT last,[3]; [6],5.4 ± 0.41 h
same,Cmax,[3]; [7],4.04 ± 0.72 ng/mL
same,AUC(0-inf),[3]; [9],90.7 ± 52.9 ng·h/mL
same,AUC(0-t),[3]; [9],31.1 ± 1.74 ng·h/mL
same,MRT last,[3]; [9],5.23 ± 0.04 h
same,Tmax,[3]; [9],0.33 ± 0.14 h
same,Cmax,[3]; [10],< 10 ng/mL
same,Cmax,[3]; [11],9.21 ± 0.78 ng/mL
same,half-life,[3]; [12],> 2.6 h
same,half-life,[3]; [13],18.3 ± 13 h
same,Cltot,[3]; [14],382.2 ± 252.5 mL/min/kg
same,MRT0-∞,[3]; [14],27.09 ± 16.67 h
same,Tmax,[3]; [14],0.25 ± 0.00 h
same,t1/2 β,[3]; [14],18.14 ± 12.52 h
same,Cltot,[3]; [15],585.2 ± 304.2 mL/min/kg
same,MRT0-∞,[3]; [15],26.52 ± 19.83 h
same,Stability: Measured,[4]; [16],2.25 ± 0.34 ng/mL
same,Stability: RE,[4]; [16],12.73%
same,Stability: Measured,[4]; [17],464.77 ± 53.87 ng/mL
same,Stability: RE,[4]; [17],16.19%
same,Stability: Measured,[4]; [18],1714.76 ± 174.65 ng/mL
same,Stability: RE,[4]; [18],7.17%
same,Stability: Measured,[4]; [19],2.14 ± 0.11 ng/mL
same,Stability: RE,[4]; [19],6.84%
same,Stability: Measured,[4]; [20],462.76 ± 13.70 ng/mL
same,Stability: RE,[4]; [20],15.69%
same,Stability: Measured,[4]; [21],1933.47 ± 224.22 ng/mL
same,Stability: RE,[4]; [21],20.84%
same,Stability: Measured,[4]; [22],2.10 ± 0.23 ng/mL
same,Stability: RE,[4]; [22],4.94%
same,Stability: Measured,[4]; [23],468.67 ± 61.03 ng/mL
same,Stability: RE,[4]; [23],19.13%
same,Stability: Measured,[4]; [24],1830.46 ± 289.25 ng/mL
same,Stability: RE,[4]; [24],14.40%
same,Papp(apical→basolateral),Caco-2 cell monolayers,0.98^d ×10^-6 cm/s
same,Papp(basolateral→apical),Caco-2 cell monolayers,11.81^d ×10^-6 cm/s
same,apparent permeability in Caco-2 cell monolayers,Caco-2 cell monolayers,≥ 10^-6 cm/s
"Cc1cccc2c3c(ccc12)C1=C(C(=O)C3=O)[C@@H](C)CO1 [DHTS I, dihydrotanshinone I]",solubility in water (in words),[1],insoluble
same,Histopathology of heart tissue (H&E),[2]; [5],remarkably severe histological damage with extensive myocardial lysis and architecture wrecking; also recorded: extremely severe histological damage with extensive myocardial lysis and architecture wrecking
same,ECG (lead II) findings on the fifth day of the trial,[2],T waves reversed or decreased
same,determination in rat plasma at the planned successive PK time points,[3],could be determined
same,detection in rat plasma,[3],could be detected
same,AUC(0-inf),[3]; [6],14.2 ± 17.2 ng·h/mL
same,AUC(0-t),[3]; [6],12.1 ± 14.4 ng·h/mL
same,MRT inf,[3]; [6],6.93 ± 7.38 h
same,MRT last,[3]; [6],5.17 ± 5.21 h
same,Tmax,[3]; [6],1.38 ± 0.88 h
same,Cmax,[3]; [7],1.9 ± 1.57 ng/mL
same,half-life,[3]; [8],2.68 ± 2.38 h
same,AUC(0-inf),[3]; [9],16.1 ± 2.84 ng·h/mL
same,AUC(0-t),[3]; [9],14.7 ± 2.51 ng·h/mL
same,MRT inf,[3]; [9],7.26 ± 3.47 h
same,MRT last,[3]; [9],5.05 ± 2.03 h
same,Tmax,[3]; [9],0.83 ± 0.14 h
same,Cmax,[3]; [10],< 10 ng/mL
same,Cmax,[3]; [11],3.1 ± 0.49 ng/mL
same,half-life,[3]; [12],> 2.6 h
same,half-life,[3]; [13],5.57 ± 2.98 h
same,Cltot,[3]; [14],101 ± 122 mL/min/kg
same,Cltot,[3]; [15],47.7 ± 7.67 mL/min/kg
same,Stability: Measured,[4]; [16],2.21 ± 0.23 ng/mL
same,Stability: RE,[4]; [16],10.31%
same,Stability: Measured,[4]; [17],464.67 ± 43.51 ng/mL
same,Stability: RE,[4]; [17],16.17%
same,Stability: Measured,[4]; [18],1644.43 ± 109.72 ng/mL
same,Stability: RE,[4]; [18],2.78%
same,Stability: Measured,[4]; [19],2.23 ± 0.06 ng/mL
same,Stability: RE,[4]; [19],11.41%
same,Stability: Measured,[4]; [20],456.85 ± 38.51 ng/mL
same,Stability: RE,[4]; [20],14.21%
same,Stability: Measured,[4]; [21],1735.14 ± 230.11 ng/mL
same,Stability: RE,[4]; [21],8.45%
same,Stability: Measured,[4]; [22],2.015 ± 0.18 ng/mL
same,Stability: RE,[4]; [22],2.73%
same,Stability: Measured,[4]; [23],437.97 ± 37.90 ng/mL
same,Stability: RE,[4]; [23],9.49%
same,Stability: RE,[4]; [24],0.88%
same,Papp(apical→basolateral),Caco-2 cell monolayers,1.49^d ×10^-6 cm/s
same,Papp(basolateral→apical),Caco-2 cell monolayers,8.28^d ×10^-6 cm/s
same,apparent permeability in Caco-2 cell monolayers,Caco-2 cell monolayers,≥ 10^-6 cm/s
